The source of these data is patent US20260223854A1, “AN HERBICIDAL COMBINATION, COMPOSITION AND METHOD OF CONTROLLING WEEDS USING THE SAME” (priority 2023, published 2026).

Common to all, as to assay type: in vivo
The test system of one assay is Eleusine indica. Description: Greenhouse post-emergence herbicidal activity on Eleusine indica. Conditions: L-glufosinate ammonium 150 g a.i./ha. On the procedure: (§1) The expected efficacy of a combination of L-glufosinate ammonium and the other herbicides was calculated using the well-established Colby method. Any difference between the observed and “expected” efficacy could be attributed to synergy between the two compounds.
(§2) In the Colby method, the expected (or predicted) response of a combination of herbicides is calculated by taking the product of the observed response for each individual component of the combination when applied alone, divided by 100, and subtracting this value from the sum of the observed response for each component when applied alone. An unexpected enhancement in efficacy of the combination is then determined by comparing the observed response of the combination to the expected (or predicted) response as calculated from the observed response of each individual component alone. If the observed response of the combination is greater than the expected (or predicted) response, or stated conversely, if the difference between the observed and expected response is greater than zero, then the combination is said to be synergistic or unexpectedly effective (Colby, S. R., Weeds, 1967 (15), p. 20-22). The Colby method requires only a single dose of each herbicide applied alone and the mixture of both doses. The formula used to calculate the expected efficacy (EE) which was compared with the observed efficacy (OE) to determine the efficacy of the present disclosure is explained hereinbelow:
(§3) Methodology: Greenhouse trials were conducted to evaluate the efficacy of the combination of L-glufosinate ammonium and triketone herbicides—mesotrione and tembotrione—on weeds Amaranthus viridis, Borreria verticillata, Brachiaria decumbens and Eleusine indica.
(§4) The soil used was sandy clay loam—sand: 68.0%; silt: 8.0%; clay: 24.0%.
(§5) All treatments were in 4 replications per treatment with a spray volume of 150 L/ha.
The percentage efficacy was calculated at 14 days after application (DAA). The target weed was Eleusine indica, and the concentration of the herbicide and the results are recorded in Table 3.
The percentage efficacy was calculated at 3, 7, 21, 28, 35 days of application (DAA). The target weed was Eleusine indica, and the concentration of the herbicide and the results are recorded in Table 8.

For another assay, the system named is Brachiaria decumbens. Put plainly: Greenhouse post-emergence herbicidal activity on Brachiaria decumbens. The conditions noted are these: 3 DAA, L-glufosinate ammonium 150 g a.i./ha. Here is the method: as §1, §2, §3, §4, §5
The percentage efficacy was calculated at 14 days after application (DAA). The target weed was Brachiaria decumbens, and the concentration of the herbicide and the results are recorded in Table 1.
The percentage efficacy was calculated at 3 days of application (DAA). The target weed was Brachiaria decumbens and the concentration of the herbicide and the results are recorded in Table 7.

Another assay deals with Borreria verticillata. Put plainly: Greenhouse post-emergence herbicidal activity on Borreria verticillata. Conditions: L-glufosinate ammonium 150 g a.i./ha. On the procedure:
as §1, §2, §3, §4, §5
The percentage efficacy was calculated at 28 and 35 days after application (DAA). The target weed was Borreria verticillata, and the concentration of the herbicide and the results are recorded in Table 2.
The percentage efficacy was calculated at 3 and 7 days of application (DAA). The target weed was Borreria verticillata, and the concentration of the herbicide and the results are recorded in Table 6.

The next assay deals with Amaranthus viridis. Description: Greenhouse post-emergence herbicidal activity on Amaranthus viridis. The conditions noted are these: L-glufosinate ammonium 150 g a.i./ha. On the procedure:
as §1, §2, §3, §4, §5
The percentage efficacy was calculated at 3 and 7 days after application (DAA). The target weed was Amaranthus viridis, and the concentration of the herbicide and the results are recorded in Table 4.
The percentage efficacy was calculated at 3 and 7 days of application (DAA). The target weed was Amaranthus viridis, and the concentration of the herbicide and the results are recorded Table 5.

The mark [1] stands for this setting: 3 DAA, tembotrione 53 g a.i./ha, Table 8.
Setting [2] is: 7 DAA, tembotrione 53 g a.i./ha, Table 8.
Where [3] appears, read: 14 DAA, mesotrione 100 g a.i./ha, Table 3.
Setting [4] is: 21 DAA, tembotrione 53 g a.i./ha, Table 8.
Setting [5] is: 28 DAA, tembotrione 53 g a.i./ha, Table 8.
Setting [6] is: 35 DAA, tembotrione 53 g a.i./ha, Table 8.
Setting [7] is: mesotrione 100 g a.i./ha, Table 1.
[8] abbreviates: tembotrione 53 g a.i./ha, Table 7.
The mark [9] stands for this setting: 3 DAA, tembotrione 53 g a.i./ha, Table 6.
Setting [10] is: 7 DAA, tembotrione 53 g a.i./ha, Table 6.
The mark [11] stands for this setting: 28 DAA, mesotrione 100 g a.i./ha, Table 2.
The mark [12] stands for this setting: 35 DAA, mesotrione 100 g a.i./ha, Table 2.
Where [13] appears, read: 3 DAA, mesotrione 100 g a.i./ha, Table 4.
Setting [14] is: 3 DAA, tembotrione 53 g a.i./ha, Table 5.
Setting [15] is: 7 DAA, mesotrione 100 g a.i./ha, Table 4.
[16] abbreviates: 7 DAA, tembotrione 53 g a.i./ha, Table 5.

Turning to `CP(=O)(O)CC[C@H](N)C(=O)O.N` [L-glufosinate ammonium, ammonium (2S)-2-amino-4-(methylphosphinato) butyric acid], the “% Control” value with Eleusine indica (setting [1]) is 40%; with Eleusine indica (setting [2]) it was 50%; with Eleusine indica (setting [3]), 30%; with Eleusine indica (setting [4]), 50%; in the assay with Eleusine indica (setting [5]), 30%; in the assay with Eleusine indica (setting [6]), 40%. Besides, the “% Control” value with Brachiaria decumbens (setting [7]) stood at 40%; in the assay on Brachiaria decumbens (setting [8]) it was 40%; with Borreria verticillata (setting [9]), 55%; in the assay with Borreria verticillata (setting [10]), 80%; in the assay with Borreria verticillata (setting [11]), 90%; in the assay with Borreria verticillata (setting [12]), 85%. Also, the “% Control” value with Amaranthus viridis (setting [13]) turned out to be 40%; in the assay with Amaranthus viridis (setting [14]) it was 50%; in the assay on Amaranthus viridis (setting [15]), 80%; with Amaranthus viridis (setting [16]) it was 80%.

Regarding `CS(=O)(=O)c1ccc(C(=O)C2C(=O)CCCC2=O)c([N+](=O)[O-])c1` [Mesotrione, mesotrione], the “% Control” value with Eleusine indica (setting [3]) amounted to 20%; in the assay on Brachiaria decumbens (setting [7]) it was 10%; in the assay with Borreria verticillata (setting [11]), 75%; with Borreria verticillata (setting [12]) it was 75%; with Amaranthus viridis (setting [13]), 10%; in the assay with Amaranthus viridis (setting [15]) it was 30%.

Consider `CS(=O)(=O)c1ccc(C(=O)C2C(=O)CCCC2=O)c(Cl)c1COCC(F)(F)F` [Tembotrione, tembotrione], for which the “% Control” value came to 5% in the assay on Eleusine indica (setting [1]); 15% with Eleusine indica (setting [2]); 28% in the assay on Eleusine indica (setting [4]); 35% in the assay on Eleusine indica (setting [5]); 20% with Eleusine indica (setting [6]); 8% in the assay with Brachiaria decumbens (setting [8]). For the same compound, the “% Control” value turned out to be 10% in the assay on Borreria verticillata (setting [9]), 30% in the assay with Borreria verticillata (setting [10]), 10% in the assay on Amaranthus viridis (setting [14]) and 30% in the assay with Amaranthus viridis (setting [16]).
